Experimental data: PubChem BioAssay AID1259411 (Chemical Carcinogenesis Research Information System (CCRIS), 2018)
Activity calls are given as the source filed them. How the calls were made is not given here.

Test system: rodent carcinogenicity bioassays, tumor incidence
Experiment: CCRIS carcinogenicity studies
In short: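 Archive of carcinogenicity, mutagenicity, tumor promotion and tumor inhibition results drawn from journals, NCI reports and other sources, expert-reviewed; covers 1985-2011 and is no longer updated.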

Cc1cc2c(nc1N)[nH]c1ccccc12
carcinogen call (Species: MOUSE, Strain/Sex: CDF1/FEMALE, Route: ORAL, Dose: 0, 0.08% IN DIET FOR UP TO 685 D (STUDY DURATION: 685 D), Tumor Site: Type of Lesion: LIVER: HEPATOCELLULAR ADENOMA OR CARCINOMA, BLOOD VESSELS: HEMANGIOENDOTHELIOMA OR HEMANGIOENDOTHELIAL SARCOMA): active; positive
carcinogen call (Species: MOUSE, Strain/Sex: CDF1/MALE, Route: ORAL, Dose: 0, 0.05% IN DIET FOR UP TO 685 D (STUDY DURATION: 685 D), Tumor Site: Type of Lesion: LIVER: HEPATOCELLULAR ADENOMA OR CARCINOMA, BLOOD VESSELS: HEMANGIOENDOTHELIOMA OR HEMANGIOENDOTHELIAL SARCOMA): active; positive
carcinogen call (Species: RAT, Strain/Sex: F344/MALE, Route: ORAL, Dose: 0, 0.01, 0.02% IN DIET FOR 100 WK (STUDY DURATION: 100 WK), Dose: 0, 0.01, 0.02% IN DIET FOR 100 WK (STUDY DURATION: 100 WK), Tumor Site: Type of Lesion: LIVER: HEPATOCELLULAR CARCINOMA, PANCREAS: ACINAR CELL ADENOMA, SKIN (SUBCUTIS): FIBROMA, Tumor Site: Type of Lesion: LIVER: HEPATOCELLULAR CARCINOMA, PANCREAS: ACINAR CELL ADENOMA, SKIN (SUBCUTIS): FIBROMA): active; positive

C#C[C@]1(O)CC[C@H]2[C@@H]3CCc4cc(O)ccc4[C@H]3[C@@H](OC)C[C@@]21C
carcinogen call (Species: HAMSTER, Strain/Sex: SYRIAN/MALE, Route: SUBCUTANEOUS IMPLANT, Dose: 0, 20 MG IN PELLETS IMPLANTED EVERY 2.5 MO FOR 9 MO (STUDY DURATION: 9 MO), Tumor Site: Type of Lesion: KIDNEY: TUMOR): active; positive

O=NN1CCC1
carcinogen call (Species: HAMSTER, Strain/Sex: SYRIAN/MALE, Route: INTRAGASTRIC, Dose: 0, 50 MG/ML IN 0.2 ML STERILIZED WATER 1/WK FOR 50 WK (TOTAL DOSE 500 MG) (STUDY DURATION: LIFESPAN), Tumor Site: Type of Lesion: LIVER: ADENOMA, HEPATOCELLULAR CARCINOMA, HEMANGIOSARCOMA, NOSE: CARCINOMA): active; positive

C=CCCl
carcinogen call (Species: MOUSE, Strain/Sex: B6C3F1/FEMALE, Route: GAVAGE, Dose: 0, 129, 258 MG/KG IN CORN OIL 5 D/WK FOR 78 (STUDY DURATION: 92 WK), Dose: 0, 129, 258 MG/KG IN CORN OIL 5 D/WK FOR 78 (STUDY DURATION: 92 WK), Tumor Site: Type of Lesion: FORESTOMACH: SQUAMOUS CELL CARCINOMA OR PAPILLOMA): equivocal
carcinogen call (Species: MOUSE, Strain/Sex: B6C3F1/MALE, Route: GAVAGE, Dose: 0, 172, 199 MG/KG IN CORN OIL 5 D/WK FOR 78 (STUDY DURATION: 92 WK), Dose: 0, 172, 199 MG/KG IN CORN OIL 5 D/WK FOR 78 (STUDY DURATION: 92 WK), Tumor Site: Type of Lesion: FORESTOMACH: SQUAMOUS CELL CARCINOMA): equivocal
carcinogen call (Species: RAT, Strain/Sex: OSBORNE-MENDEL/FEMALE, Route: GAVAGE, Dose: 0, 55, 73 MG/KG N CORN OIL 5 D/WK FOR 78 (STUDY DURATION: 108-111 WK), Dose: 0, 55, 73 MG/KG N CORN OIL 5 D/WK FOR 78 (STUDY DURATION: 108-111 WK)): inactive; negative
carcinogen call (Species: RAT, Strain/Sex: OSBORNE-MENDEL/MALE, Route: GAVAGE, Dose: 0, 57, 77 MG/KG IN CORN OIL 5 D/WK FOR 78 (STUDY DURATION: 108-111 WK), Dose: 0, 57, 77 MG/KG IN CORN OIL 5 D/WK FOR 78 (STUDY DURATION: 108-111 WK)): inactive; negative

Cc1ccccc1[N+](=O)[O-]
carcinogen call (Species: MOUSE, Strain/Sex: B6C3F1/FEMALE, Route: ORAL, Dose: 0, 1250, 2500, 5000 PPM IN DIET FOR 105 WK (STUDY DURATION: 105 WK), Dose: 0, 1250, 2500, 5000 PPM IN DIET FOR 105 WK (STUDY DURATION: 105 WK), Tumor Site: Type of Lesion: CIRCULATORY SYSTEM: HEMANGIOSARCOMA, LARGE INTESTINE (CECUM): CARCINOMA, LIVER: HEPATOCELLULAR ADENOMA, HEPATOCELLULAR C, Tumor Site: Type of Lesion: CIRCULATORY SYSTEM: HEMANGIOSARCOMA, LARGE INTESTINE (CECUM): CARCINOMA, LIVER: HEPATOCELLULAR ADENOMA, HEPATOCELLULAR C): active; positive
carcinogen call (Species: MOUSE, Strain/Sex: B6C3F1/MALE, Route: ORAL, Dose: 0, 1250, 2500, 5000 PPM IN DIET FOR 105 WK (STUDY DURATION: 105 WK), Dose: 0, 1250, 2500, 5000 PPM IN DIET FOR 105 WK (STUDY DURATION: 105 WK), Tumor Site: Type of Lesion: CIRCULATORY SYSTEM: HEMANGIOSARCOMA, LARGE INTESTINE (CECUM): CARCINOMA): active; positive
carcinogen call (Species: RAT, Strain/Sex: F344/FEMALE, Route: ORAL, Dose: 0, 625, 1250, 2000 PPM IN DIET FOR 105 WK (STUDY DURATION: 105 WK), Dose: 0, 625, 1250, 2000 PPM IN DIET FOR 105 WK (STUDY DURATION: 105 WK), Tumor Site: Type of Lesion: SKIN (SUBCUTANEOUS): FIBROMA, FIBROMA OR FIBROSARCOMA, MAMMARY GLAND: FIBROADENOMA: LIVER: HEPATOCELLULAR ADENOMA): active; positive
carcinogen call (Species: RAT, Strain/Sex: F344/MALE, Route: ORAL, Dose: 0, 625, 1250, 2000 PPM IN DIET FOR 105 WK (STUDY DURATION: 105 WK), Dose: 0, 625, 1250, 2000 PPM IN DIET FOR 105 WK (STUDY DURATION: 105 WK), Tumor Site: Type of Lesion: MESOTHELIUM: MALIGNANT MESOTHELIOMA, SKIN (SUBCUTANEOUS): LIPOMA, FIBROMA, FIBROSARCOMA, FIBROMA OR FIBROSARCOMA, MAMMAR, Tumor Site: Type of Lesion: MESOTHELIUM: MALIGNANT MESOTHELIOMA, SKIN (SUBCUTANEOUS): LIPOMA, FIBROMA, FIBROSARCOMA, FIBROMA OR FIBROSARCOMA, MAMMAR): active; positive
carcinogen call (Species: RAT, Strain/Sex: F344/MALE, Route: ORAL, Dose: 0, 2000, 5000 PPM IN DIET FOR FIRST 3 MO (STUDY DURATION: 105 WK), Dose: 0, 2000, 5000 PPM IN DIET FOR FIRST 3 MO (STUDY DURATION: 105 WK), Tumor Site: Type of Lesion: LIVER: HEPATOCELLULAR ADENOMA OR CARCINOMA, CHOLANGIOCARCINOMA: LUNG: ALVEOLAR/BRONCHIOLAR ADENOMA, ALVEOLAR/BRONCHIOLAR): active; positive

Nc1ccc2c(c1)Cc1ccccc1-2
carcinogen call (Species: MOUSE, Strain/Sex: MALE,FEMALE, Route: DERMAL, Dose: 4% SOLN IN ACETONE, 90 APPLICATIONS (TOTAL DOSE: 270 MG), Tumor Site: Type of Lesion: LIVER: HEPATOMA, INTESTINES): active; positive
carcinogen call (Species: RAT, Strain/Sex: F344/MALE, Route: INJECTION, Dose: 0, 1 UMOL IN 0.5 ML OF SOLUTION CONTAINING 0.4 ML PHOSPHATE BUFFERED SALINE/ GENTAMYCIN (PH 7) AND 0.1 ML DMSO INJECTED): inactive; negative
carcinogen call (Species: RAT, Strain/Sex: HOLTZMAN/FEMALE, Route: ORAL, Dose: 1.62 MMOL/KG IN DIET, Tumor Site: Type of Lesion: MAMMARY GLAND, EAR (DUCT)): active; positive
carcinogen call (Species: RAT, Strain/Sex: HOLTZMAN/MALE, Route: ORAL, Dose: 1.62 MMOL/KG IN DIET, Tumor Site: Type of Lesion: LIVER, EAR (DUCT), INTESTINES (SMALL), Tumor Site: Type of Lesion: LIVER, EAR (DUCT), INTESTINES (SMALL)): active; positive
carcinogen call (Species: RAT, Strain/Sex: WISTAR/MALE, Route: DERMAL, Dose: 4% SOLN IN ACETONE 3/WK FOR 30 WK (TOTAL DOSE: 270 MG), Tumor Site: Type of Lesion: LIVER: HEPATOCELLULAR CARCINOMA, EAR (ZYMBAL GLAND): CARCINOMA): active; positive

Nc1ccc(N=Nc2ccc(-c3ccc(N=Nc4c(S(=O)(=O)O)cc5c(c4N)C(=O)/C(=N/Nc4ccccc4)C(S(=O)(=O)O)=C5)cc3)cc2)c(N)c1
carcinogen call (Species: MOUSE, Strain/Sex: ICR/MALE,FEMALE, Route: ORAL, Dose: 0, 0.3% IN DRINKING WATER FOR LIFE (STUDY DURATION: 50-60 WK), Tumor Site: Type of Lesion: LIVER: HEPATOCELLULAR CARCINOMA, MAMMARY GLAND: ADENOCARCINOMA OR SQUAMOUS CELL CARCINOMA): active; positive
carcinogen call (Species: RAT, Strain/Sex: F344/FEMALE, Route: ORAL, Dose: 0, 190, 375, 750, 1500, 3000 PPM IN DIET FOR 91 D (STUDY DURATION:93 D), Dose: 0, 190, 375, 750, 1500, 3000 PPM IN DIET FOR 91 D (STUDY DURATION:93 D), Tumor Site: Type of Lesion: LIVER: NEOPLASTIC NODULE, FOCI OF CELLULAR ALTERATION OR BASOPHILIC FOCI): active; positive
carcinogen call (Species: RAT, Strain/Sex: F344/MALE, Route: ORAL, Dose: 0, 190, 375, 750, 1500, 3000 PPM IN DIET FOR 91 D (STUDY DURATION: 93 D), Dose: 0, 190, 375, 750, 1500, 3000 PPM IN DIET FOR 91 D (STUDY DURATION: 93 D), Tumor Site: Type of Lesion: LIVER: HEPATOCELLULAR CARCINOMA OR NEOPLASTIC NODULE, FOCI OF CELLULAR ALTERATION OR BASOPHILIC FOCI): active; positive
